Melting point data for 91 compounds are collected here from a melting point compilation (Tetko et al.; mined from patent text by program, amines drawn as free bases though some values may be those of a salt).

One may read the melting point as the temperature, or range, at which the solid turns liquid. For `C=C(C)c1cc(-c2ccc(OCCNS(C)(=O)=O)cc2)n(-c2ccc(OC)nc2)n1`, the melting point lay in the range of 96 to 99 °C.

The compound `CCCOc1cc2ccccc2c2c(=O)c(-c3ccc(OC)cc3)c(C)[nH]c12` yielded a melting point of 204 to 206 °C. With `COc1cc2cc(C(=O)N3CC(CCl)c4c3cc([N+](=O)[O-])c3cc(S(=O)(=O)NCCO)ccc43)[nH]c2c(OC)c1OC` (stereo unspecified) the figure was 257 to 258 °C; with `Cn1ncnc1COc1nn2c(-c3ccco3)nncc2c1-c1ccccc1F`, 204 to 206 °C; with `Cc1cccc(-c2n[nH]cc2-c2ccnc(-c3ccc(OCc4cn(C)cn4)cc3)c2)n1`, 191 °C. Compound `O=[N+]([O-])c1ccccc1S(=O)(=O)c1ccc(Cl)cc1` yielded a melting point of 136 to 138 °C. The figure for `Cc1cc(C#N)cc(C)c1Oc1cc(Cl)nc(Cl)n1` is 208 to 210 °C. `CCCc1nnc(/C=C/c2cn(-c3ccccc3)nc2OCc2ccc(OCc3nc(-c4ccco4)oc3C)c(OC)c2)o1` had a melting point of 165 to 166 °C. With `CC(=O)C(=CS(=O)(=O)NC(C)C)c1cccc([N+](=O)[O-])c1` the figure was 153 to 157 °C.

Consider `C#CCNC(=O)Oc1cccc2c1OC(C)(C)O2`, for which the melting point lay within 107 to 109 °C. On to `CN1CCN(c2nc(-c3ccc(Cl)cc3)c(CCC(=O)O)o2)CC1`, for which the melting point lay within 157 to 160 °C. The figure for `CC(Cc1c[nH]c2ccccc12)(NC(=O)OC1C2CC3CC(C2)CC1C3)C(=O)NCC(CCC(=O)O)c1ccccc1` (stereo unspecified) is 117 to 122 °C; for `N#CC1(CC(=O)O)CCCCC1` it is 102 °C.

With `O=c1[nH]ncc2[nH]c(-c3ccc(OC(F)F)c(OCC4CC4)c3)c(Cl)c12`, the melting point lay in the range of 258 to 260 °C. `CC(C)(C)OC(=O)Cn1cc(C[C@@H](N)C(=O)O)c2ccccc21` yielded a melting point of 260 °C. `N#Cc1ccc2c(c1)S(=O)c1ccccc1CC2=O` (stereo unspecified) yielded a melting point of 219 to 221 °C. `CCC1(Cl)Cc2cc(OCC(=O)OC)c(Cl)c(Cl)c2C1=O` (stereo unspecified) yielded a melting point of 111 °C. On to `CCCCCC(=O)NC(C)(C)C(=O)O`, for which the melting point lay in the range of 141 to 143 °C. The figure for `c1cn(CCCc2ccc(OCc3coc(-c4ccoc4)n3)cc2)cn1` is 85 to 87 °C; for `COC(Cc1ccc(OCCc2nc(-c3ccccc3)oc2C)c2ccccc12)C(=O)O` (stereo unspecified) it is 128 to 130 °C. Compound `CC(C)=CCC(CC=C(C)C)(C(=O)NO)S(=O)(=O)c1ccc(C)cc1` yielded a melting point of 108 to 110 °C.

Regarding `CCOc1cc2c(cn1)[nH]c1ccccc12`, the melting point was 130 to 133 °C. Compound `CCOC(=O)c1cc(NS(=O)(=O)c2cccnc2)ccc1Oc1cncc(Cl)c1` yielded a melting point of 120 to 122 °C. Turning to `O=[N+]([O-])c1ccc2c(c1)CCN(Cc1ccccc1)C2`, the melting point is 76 to 78 °C. With `O=C(O)c1ccc(COCc2csc3nc(C(=O)NCc4cccc(Cl)c4)[nH]c(=O)c23)cc1` the figure was 236 to 238 °C; with `CCOC(=O)CNC(=O)c1nc2ccc(NCCCN3CCC(OC(c4ccccc4)c4ccccc4)CC3)nn2c1Cl`, 178 to 180 °C; with `O=C(CCl)Nc1ccc2cn[nH]c2c1`, 155 to 160 °C. The figure for `O=C(NCC1CCN(CC2(C(=O)O)CCOCC2)CC1)N1C(=O)C2(CCCC2)c2ccc(F)cc21` is 129 °C; for `O=c1[nH]c(=O)n(C2COC(CO)C2CO)cc1C=CBr` (stereo unspecified) it is 142 to 143 °C; for `Cc1nc[nH]c1CN1CCC(Nc2nc3ccccc3n2Cc2ccco2)CC1` it is 242 °C. Compound `O=c1c(CO)cc(-c2ccc3c(c2)CCO3)nn1Cc1ccc(Cl)cc1` registered a melting point of 129 to 134 °C. The figure for `CCS(=O)c1cc(C(=O)O)c(OC)cc1N` (stereo unspecified) is 158 °C. The figure for `Cc1c(Br)c(=O)n(C2CCCC2)c2nc(Nc3ccc(N4CCNCC4)nc3)ncc12` is 290 °C; for `Cn1c(=O)cc(CCc2ccc(Cl)s2)c2cc(C(O)(c3ccc(Cl)cc3)c3cccnc3)ccc21` (stereo unspecified) it is 110 °C. For the compound `Cn1c([N+](=O)[O-])cnc1C1=NOC2CCCCC12` (stereo unspecified), the melting point lay within 119 to 121 °C.

`COc1ccc(C(O)C(C)=CC(=O)O)c(C(C)C)c1OC` (stereo unspecified) came in with a melting point of 154 to 155 °C.

`CCC(O)(c1ccc(OCc2ccccc2)cc1)c1ccc(Cl)cc1Cl` (stereo unspecified) came in with a melting point of 56 to 57 °C. Turning to `COC(=O)c1nc(-c2ccc(C)c(OC)c2F)cc(N)c1Cl`, the melting point was in the range of 95 to 96 °C. For `CC(=NC(C#N)=C(N)C#N)c1ccc2ccccc2c1`, the melting point is 188 to 189 °C.

In turn, `CCN1CCCC1CNC(=O)c1nc(NC)sc1-c1ccncc1` (stereo unspecified) registered a melting point of 76 to 78 °C. With `O=C(O)/C=C/c1ccc(-c2nc3c(=O)n(CCC4=CCCCC4)c(=O)n(CCC4=CCCCC4)c3[nH]2)cc1` the figure was over 250 °C; with `O=C(NCc1ccc(F)cc1)N1CCC(Oc2ccc(CCNC[C@H](O)COc3ccc(O)cc3)cc2)CC1`, 126 to 128 °C. The figure for `NC(=O)C1COCCN1C1CC1` (stereo unspecified) is 116 °C. The figure for `Cc1ccc2c(c1)C(=O)c1ccc(-c3nnn[nH]3)cc1S2(=O)=O` is 267 °C; for `Oc1ncc(-c2ccccc2)s1` it is 202 to 204 °C. The compound `N#CC(C(=O)Nc1cccc(F)c1)C(=O)c1nn(-c2ccccc2)c2c1Cc1ccccc1-2` (stereo unspecified) returned a melting point of 278 to 284 °C. With `O=C(O)Cn1cccc(NC(=O)OCc2ccccc2)c1=O` the figure was 171 to 173 °C. The figure for `CC=C(C)C1CCC2C3CCC4=CC(=O)CCC4(C)C3CCC12C` (stereo unspecified) is 157 to 165 °C; for `Clc1ccc(-c2cc(C3CCN(CCc4ccccc4)CC3)n[nH]2)cc1` it is 169 to 171 °C; for `Sc1nc(-c2ccccc2)c(-c2cccnc2)[nH]1` it is 317 to 323 °C. With `ClCc1ccc2cc(Cl)ccc2c1` the figure was 107 to 110 °C; with `O=C(Nc1cccc2c1C(=O)c1c-2n[nH]c1-c1ccc(N2CCNCC2)cc1)NN1CCC[C@@H]1COCc1ccccc1`, 207 °C; with `CCOC(=O)c1cc(SC(F)F)c(-c2ccc(Cl)cc2)[nH]1`, 113 to 117 °C.

Regarding `CS(=O)(=O)Nc1ccc(NCC(=O)N2CCC(Cc3ccc(Cl)cc3)CC2)cc1`, the melting point was 70 °C. With `CCCCNc1nc(C)c(C(=O)OCC)c2c1nnn2CC` the figure was 85 to 87 °C.

In turn, `C=CCC(O)(Cn1cncn1)c1ccc(Cl)cc1Cl` (stereo unspecified) had a melting point of 101 °C. As for `Oc1ccc(Nc2ccc3cc(O)ccc3c2)cc1`, the melting point lay in the range of 195 to 196 °C. In the case of `O=c1[nH]c2c(Cl)cc(Cl)cc2c(=O)n1CCCN1CC=C(c2ccc(Cl)cc2)CC1`, the melting point is 197 to 199 °C.

Turning to `CC1(C)CN(Cc2cc(F)ccc2F)c2cc(I)cnc2N1`, the melting point is 168 to 169 °C.

In turn, `CCOP(=O)(/C=C/c1cn(C)nc1OCc1ccc(OCc2nc(-c3ccco3)oc2C)c(OC)c1)OCC` yielded a melting point of 72 to 73 °C.

On to `O=C(O)C1=Cc2c(Cl)cc(Cl)cc2OC1C(F)(F)F` (stereo unspecified), for which the melting point fell in the range of 190 to 191 °C. `O=C(NCCc1ccccc1)[C@@H]1Cc2ccccc2N1S(=O)(=O)c1cccc(CNC(=O)C(F)(F)F)c1` had a melting point of 70 °C. For the compound `CC(C)=CCON1C(=O)c2ccccc2C1=O`, the melting point is 97 to 98 °C. In turn, `CC(Cc1cccnc1)(NC(=O)OC1C2CC3CC(C2)CC1C3)C(=O)NCCc1ccccc1` (stereo unspecified) yielded a melting point of 167 to 169 °C. As to `COc1ccc(Cl)cc1C1OC(=O)N(C(C)=O)C1=O` (stereo unspecified), the melting point lay within 161 to 164 °C.

`CC(=O)n1nc(-c2c(C)cc(C)c(N)c2C)n2nc(C(C)(C)C)cc12` came in with a melting point of 206 to 207 °C. The figure for `N#CC=C(N)c1cccs1` is 50 to 54 °C. As to `CC(=O)CC(=O)CCC(=O)CC(C)=O`, the melting point was in the range of 62.7 to 64 °C. With `CCCCc1nn2cccc(C(=O)OCC)c2c1C(=O)c1ccc(Br)cc1` the figure was under 50 °C; with `CCOC(=O)Cc1cc(Cl)cc(C(=O)c2ccc(Br)cc2)c1N`, 92 to 94 °C; with `O=C(O)CCNC(=O)c1cc([N+](=O)[O-])c2ccccc2c1O`, 254 °C. Consider `CCN1C(=O)C(=O)C(C)=C(C#N)C1=O`, for which the melting point fell in the range of 159 to 160 °C.

With `CC1(C)CC(O)CC2(C)OC(=O)C=C12` (stereo unspecified), the melting point fell in the range of 148 to 149 °C. For `O=C(O)c1cn(C2CC2)c2nc(N3Cc4cccc(Cl)c4C3)c(F)cc2c1=O`, the melting point is over 300 °C. On to `CC(C)NC(=O)C(O)C(Oc1ccccc1)c1ccc(Cl)cc1` (stereo unspecified), for which the melting point fell in the range of 175 to 177 °C. In turn, `Clc1ccc(-n2nc3c(c2Br)CSCC3)cc1` showed a melting point of 144 to 145 °C.

`c1cc(-c2nccs2)nc(C2OCCO2)c1` registered a melting point of 71 °C. Compound `CN(C)CC1(C2(O)CCCCC2)Cc2cc3c(cc21)N(C)CC3` (stereo unspecified) had a melting point of 121 to 124 °C. With `CCCCNC(=O)Oc1ccc(Oc2ccccc2)cc1C(=O)OC` the figure was 53 to 56 °C; with `CN1CCNC(C(=O)Cn2c(-c3cc(Cl)ccn3)nc3cccnc32)C1` (stereo unspecified), 174 to 175 °C. In turn, `O=C(O)C(=O)c1csc2ccccc12` had a melting point of 92 to 93 °C. For the compound `O=c1c2cc(O)ccc2oc2c([N+](=O)[O-])ccc(Cl)c12`, the melting point is 290 to 292 °C. On to `O=C1CCn2c(-c3ccccc3)nc3cc(Cl)cc1c32`, for which the melting point fell in the range of 234 to 235 °C. In turn, `Cn1c(CCc2cc(C(F)(F)F)cc(C(F)(F)F)c2)c(Cc2c[nH]c3ccccc23)oc1=O` returned a melting point of 109 to 110 °C. With `CCCN(CCC)C(=O)CN(C(=O)CN1C(=O)c2ccccc2C1=O)c1ccccc1` the figure was 130 °C; with `CC(C)(C)OC(=O)n1nc2nc3n(c(=O)c2c1N)CCS3`, over 300 °C. With `O=C1C(Cl)=C(NC2CCCC2)C(=O)c2ccccc21` the figure was 81 to 83 °C. With `Cc1cc(C(C)(C)C)cc(C)c1Cl` the figure was 39 °C; with `CCOC(=O)c1nc(NC)sc1-c1nc2ccc(C)cn2c1C`, 225 to 227 °C; with `CC(=O)N(CC1CC(c2ccc(Cl)cc2)=NO1)c1nnc(C)s1` (stereo unspecified), 195 to 197 °C. Consider `Brc1cc(N2CCOCC2)ccc1/C=C/c1cc(/C=C/c2ccc3cc[nH]c3c2)[nH]n1`, for which the melting point was 143 to 148 °C.
